Earlier results as cited in PMC4206604 (Journal of pharmaceutical sciences, 2014).

Target: T1, NTCP (Homo sapiens, UniProt Q14973)
T1 sequence (Q14973 1-349): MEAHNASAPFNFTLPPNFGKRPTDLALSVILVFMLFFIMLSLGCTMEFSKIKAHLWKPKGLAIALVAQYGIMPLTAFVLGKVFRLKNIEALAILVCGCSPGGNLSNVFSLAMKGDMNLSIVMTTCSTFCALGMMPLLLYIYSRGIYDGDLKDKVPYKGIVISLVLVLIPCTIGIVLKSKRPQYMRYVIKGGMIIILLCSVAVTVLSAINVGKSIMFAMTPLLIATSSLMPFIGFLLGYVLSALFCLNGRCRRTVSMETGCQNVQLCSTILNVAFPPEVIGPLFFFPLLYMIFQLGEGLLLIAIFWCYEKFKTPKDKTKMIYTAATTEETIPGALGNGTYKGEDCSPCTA
Details: read-out: NTCP Km; same cell line

C[C@H](CCC(=O)NCCS(=O)(=O)O)[C@H]1CC[C@H]2[C@@H]3[C@H](O)C[C@@H]4C[C@H](O)CC[C@]4(C)[C@H]3C[C@H](O)[C@]12C [taurocholate]
Km: 5.31 µM
